Measurements published in patent US20190364896A1, “SYNERGISTIC WEED CONTROL FROM APPLICATIONS OF PYRIDINE CARBOXYLIC ACID HERBICIDES AND ALS INHIBITORS” (Dow AgroSciences LLC, priority 2014, published 2019).
Read-outs that look alike come from different tables or passages of the source.

Key:
Assay in all cases: Postemergence herbicidal activity, greenhouse trial (visual injury 0-100%)
Type in all cases: in vivo
[1] = system: rutabaga (Brassica napus var. napobrassica, BRSNA); conditions: 5 g ae/ha
Protocol: (§1) Seeds of the desired test plant species were planted in Sun Gro MetroMix® 306 planting mixture, which typically has a pH of 6.0 to 6.8 and an organic matter content of about 30 percent, in plastic pots with a surface area of 103.2 square centimeters (cm^2). […] The plants were grown for 7-36 days (d) in a greenhouse with an approximate 14-hour (h) photoperiod which was maintained at about 23° C. during the day and 22° C. during the night. Nutrients and water were added on a regular basis and supplemental lighting was provided with overhead metal halide 1000-Watt lamps as necessary. The plants were employed for testing when they reached the second or third true leaf stage.
(§2) Weighed amounts of technical material were dissolved in a volume of 97:3 volume per volume (v/v) acetone/dimethyl sulfoxide (DMSO) to stock solutions. […] The concentrated stock solutions were diluted with an aqueous mixture of 1.5% v/v of Agri-dex crop oil concentrate to provide the appropriate application rates. Compound requirements are based upon a 12 milliliter (mL) application volume at a rate of 187 liters per hectare (L/ha). Spray solutions of the experimental compound mixtures were prepared by adding the stock solutions to the appropriate amount of dilution solution to form a 12 mL spray solution in two-way combinations. Formulated compounds were applied to the plant material with an overhead Mandel track sprayer equipped with 8002E nozzles calibrated to deliver 187 L/ha over an application area of 0.503 square meters (m^2) at a spray height of 18 inches (43 centimeters (cm)) above average plant canopy. Control plants were sprayed in the same manner with the solvent blank. Application rates for component (a) are in g ae/ha, and application rates for component (b) are in g ai/ha.
(§3) The treated plants and control plants were placed in a greenhouse as described above and watered by sub-irrigation to prevent wash-off of the test compounds. After 20-22 d, the condition of the test plants as compared with that of the control plants was determined visually and scored on a scale of 0 to 100 percent where 0 corresponds to no injury and 100 corresponds to complete kill. The condition of the test plants was compared with that of the control plants as determined visually and scored on a scale of 0 to 100 percent, where 0 corresponds to no injury and 100 corresponds to complete kill. Colby's equation was used to determine the herbicidal effects expected from the mixtures.
(§4) Compound 1 was formulated as an EC and was combined with imazamox, imazamethabenz, imazapic, imazapyr or imazethapyr. The mixtures were applied to winter wheat (TRZAW) and/or maize (ZEAMX), and the phytotoxicity of the herbicidal compositions was measured. In addition, the efficacy of the herbicidal compositions on blackgrass (Alopecurus myosuroides, ALOMY), wild oat (Avena fatua, AVEFA), winter rape (Brassica napus, BRSNW), spring rape (Brassica napus, BRSNN), turnip (Brassica rapa, BRSRR), thistle (Cirsium arvense, CIRAR), large crabgrass (Digitaria sanguinalis, DIGSA), pigweed (Amaranthus retrollexus, AMARE), common lambsquarters (Chenopodium album L., CHEAL), poinsettia (Euphorbia heterophylla, EPHHL), ivyleaf morning-glory (Ipomoea hederacea, IPOHE), kochia (Kochia scoparia, KCHSC), wild buckwheat (Polygonum convolvulus, POLCO), grain sorghum (Sorghum vulgare, SORVU), chickweed (Stellaria media, STEME), wild pansy (Viola tricolor, VIOTR), sunflower (Helianthus annuus, HELAN), giant foxtail (Setaria faberi, SETFA), soybean (Glycine max, GLXMA), rutabaga (Brassica napus var. napobrassica, BRSNA) and barnyardgrass (Echinochloa crus-galli, ECHCG) was evaluated.

[2] = system: turnip (Brassica rapa, BRSRR); conditions: 5 g ae/ha
Protocol: as §1, §2, §3, §4

[3] = system: chickweed (Stellaria media, STEME); conditions: Stellaria media, post-emergence, read-out: % visual injury Obs
Procedure, shortened: (§5)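 Greenhouse plants at the 2nd–3rd true-leaf stage (14 h photoperiod, ~23/22 °C) were track-sprayed at 187 L/ha with acetone/DMSO stocks diluted in 1.5% v/v crop oil concentrate. Rates were g ae/ha for component (a) and g ai/ha for (b). Injury versus solvent-blank controls was rated visually at 20–22 d, with Colby's equation giving expected mixture effects.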

[4] = system: barnyardgrass (Echinochloa crus-galli, ECHCG); conditions: Echinochloa crus-galli, post-emergence, read-out: % visual injury Obs
Procedure, shortened: as §5

[5] = system: common lambsquarters (Chenopodium album L., CHEAL); conditions: Chenopodium album, post-emergence, read-out: % visual injury Obs
Procedure, shortened: as §5

[6] = system: ivyleaf morning-glory (Ipomoea hederacea, IPOHE); conditions: Ipomoea hederacea, post-emergence, read-out: % visual injury Obs
Procedure, shortened: as §5

[7] = system: wild oat (Avena fatua, AVEFA)
Procedure, shortened: as §5

`Nc1c(F)c(-c2ccc3cc[nH]c3c2F)nc(C(=O)O)c1Cl` [Compound 1] was tested, and the “% visual injury Obs” value [1] was 65%, the “% visual injury Obs” value [2] was 50% and the pest or weed control at 5 g/ha ([3]; 5 g ae/ha) was 50%. The pest or weed control at 10 g/ha ([3]; 10 g ae/ha) was 70%, the pest or weed control at 5 g/ha ([3]; STEME, Compound 1 5 g ae/ha) was 70% and the pest or weed control at 10 g/ha ([3]; STEME, Compound 1 10 g ae/ha) was 70%. For the same compound, the pest or weed control at 10 g/ha ([4]; 10 g ae/ha) was 60%, the pest or weed control at 5 g/ha ([4]; ECHCG, Compound 1 5 g ae/ha) was 50% and the pest or weed control at 5 g/ha ([5]; 5 g ae/ha) was 80%. It also gave a pest or weed control at 10 g/ha ([5]; 10 g ae/ha) of 100%, a pest or weed control at 5 g/ha ([5]; CHEAL, Compound 1 5 g ae/ha) of 90% and a pest or weed control at 10 g/ha ([5]; CHEAL, Compound 1 10 g ae/ha) of 100%. For the same compound, the pest or weed control at 10 g/ha ([6]; 10 g ae/ha) was 10%, the pest or weed control at 10 g/ha ([6]; IPOHE, Compound 1 10 g ae/ha) was 10% and the “% visual injury Obs” value ([7]; 5 g ae/ha) was 0%. For the same compound, the “% visual injury Obs” value ([7]; 10 g ae/ha) was 0%.

Compound `CCCOc1nn(C(=O)NS(=O)(=O)c2ccccc2C(=O)OC)c(=O)n1C` [Propoxycarbazone, propoxycarbazone] has a pest or weed control at […] ([3]; 7.5 g ai/ha) of 50%, a pest or weed control at […] ([4]; 7.5 g ai/ha) of 95% and a pest or weed control at […] ([5]; 7.5 g ai/ha) of 30%. The pest or weed control at […] ([6]; 7.5 g ai/ha) was 95% and the “% visual injury Obs” value ([7]; 7.5 g ai/ha) was 85%.
